Columns and labels:
[1] = Inhibition of beta-lactamase SHV1
[2] = Inhibition of acinetobacter-derived cephalosporinase
[3] = Inhibition of beta-lactamase AmpC expressed in Escherichia coli
[4] = Inhibition of beta-lactamase TEM1 expressed in Escherichia coli JM109
[5] = Inhibition of beta-lactamase CTX-M-9 expressed in Escherichia coli BL21(DE3)

## CCN1CCN(C(=O)N[C@@H](C(=O)NCB(O)O)c2ccc(O)cc2)C(=O)C1=O [CEFOPERAZONE BATSI]
[1]
  Ki: 17000 nM
[2]
  Ki: 600 nM

## CCN1CCN(C(=O)N[C@H](Cc2ccc(O)cc2)C(=O)NCB2OC(C)(C)C(C)(C)O2)C(=O)C1=O
[1]
  Ki: 9800 nM

## CC(C)(O/N=C(\C(=O)NCB(O)O)c1csc(N)n1)C(=O)O [CEFTAZIDIME BATSI]
[3]
  Ki: 20 nM
[4]
  Ki: 390 nM
[2]
  Ki: 310 nM
[5]
  Ki: 15 nM

— ChEMBL document CHEMBL1687831 (Antimicrob Agents Chemother, 2011)
